Some targets named below: Cytochrome P450 2D6 (Homo sapiens, UniProt P10635); Cytochrome P450 3A4 (Homo sapiens, UniProt P08684); Cytochrome P450 2C9 (Homo sapiens, UniProt P11712).
The target in experiment [1] is T1, Replicative DNA helicase DnaB (Mycobacterium tuberculosis, UniProt P9WMR3).
T1 sequence (P9WMR3 whole entry): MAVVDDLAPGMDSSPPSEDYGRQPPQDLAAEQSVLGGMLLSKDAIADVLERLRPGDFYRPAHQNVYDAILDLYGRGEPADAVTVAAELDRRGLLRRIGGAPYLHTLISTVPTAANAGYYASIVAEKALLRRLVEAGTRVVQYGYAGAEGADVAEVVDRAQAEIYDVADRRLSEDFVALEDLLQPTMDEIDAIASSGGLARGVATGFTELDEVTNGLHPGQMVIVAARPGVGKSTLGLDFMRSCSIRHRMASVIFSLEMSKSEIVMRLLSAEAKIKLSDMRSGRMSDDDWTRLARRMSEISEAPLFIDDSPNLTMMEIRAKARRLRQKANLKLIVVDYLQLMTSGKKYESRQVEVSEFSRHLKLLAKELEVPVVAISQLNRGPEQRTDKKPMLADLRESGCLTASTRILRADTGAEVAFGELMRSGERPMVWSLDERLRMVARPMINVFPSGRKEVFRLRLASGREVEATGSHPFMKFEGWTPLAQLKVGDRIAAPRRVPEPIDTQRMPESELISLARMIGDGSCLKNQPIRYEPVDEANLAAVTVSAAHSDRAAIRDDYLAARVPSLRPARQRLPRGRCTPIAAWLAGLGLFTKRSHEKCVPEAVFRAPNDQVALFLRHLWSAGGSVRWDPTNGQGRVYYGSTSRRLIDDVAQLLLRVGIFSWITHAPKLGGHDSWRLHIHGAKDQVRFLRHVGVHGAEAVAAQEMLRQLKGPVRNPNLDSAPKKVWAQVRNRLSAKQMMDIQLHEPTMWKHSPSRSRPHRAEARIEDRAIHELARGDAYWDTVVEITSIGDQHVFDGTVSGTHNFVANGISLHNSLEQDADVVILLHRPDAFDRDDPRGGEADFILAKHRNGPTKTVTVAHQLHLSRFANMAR
As to the kind of experiment: DnaB intein splicing inhibitors, dose response, biochemical, cell-free fluorescence (AID 449749). The format is functional.

The target of another experiment is T2, Protein RecA (Mycobacterium tuberculosis, UniProt P9WHJ3).
T2 sequence (P9WHJ3 whole entry): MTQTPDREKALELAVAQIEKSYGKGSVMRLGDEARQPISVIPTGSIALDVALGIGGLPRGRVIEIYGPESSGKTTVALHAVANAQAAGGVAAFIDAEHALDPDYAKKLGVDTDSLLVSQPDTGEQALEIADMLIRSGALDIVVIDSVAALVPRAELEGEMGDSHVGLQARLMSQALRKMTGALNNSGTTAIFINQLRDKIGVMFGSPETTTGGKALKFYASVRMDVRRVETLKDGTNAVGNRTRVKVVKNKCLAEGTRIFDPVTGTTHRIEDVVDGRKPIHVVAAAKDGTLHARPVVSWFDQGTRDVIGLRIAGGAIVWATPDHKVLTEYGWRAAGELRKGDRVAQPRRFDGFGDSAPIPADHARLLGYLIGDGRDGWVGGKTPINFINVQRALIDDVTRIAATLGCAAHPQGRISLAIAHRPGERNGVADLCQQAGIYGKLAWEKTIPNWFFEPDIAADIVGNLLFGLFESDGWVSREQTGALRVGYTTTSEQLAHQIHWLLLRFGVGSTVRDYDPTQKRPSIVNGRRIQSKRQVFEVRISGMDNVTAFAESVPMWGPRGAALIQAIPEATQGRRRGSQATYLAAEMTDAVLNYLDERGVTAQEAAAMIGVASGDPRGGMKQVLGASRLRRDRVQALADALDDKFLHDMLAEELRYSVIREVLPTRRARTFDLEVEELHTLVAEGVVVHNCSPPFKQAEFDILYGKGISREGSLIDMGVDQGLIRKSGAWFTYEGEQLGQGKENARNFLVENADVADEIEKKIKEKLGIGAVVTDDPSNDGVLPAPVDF
Description: Fluorescence Cell-Free Homogeneous Dose Retest to Identify Inhibitors of RecA-Intein Splicing Activity. [Related pubchem assays (depositor defined):AID2097, AID2223, AID489010, AID492950]. The class given is functional.

In another experiment the test system is INS1. Description: beta cell apoptosis inhibitors, cytokine rescue, dose response, luminescence, retest (AID 449756).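 Note: cell death triggered by IL-1 beta plus TNF-alpha plus IFN-gamma mixture; protective hits raise ATP signal compared with cytokine alone wells.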 The class given is functional, cell-based. To be noted: Rattus norvegicus.
Experiment [2] addresses T3, RNA-binding protein pos-1 (Caenorhabditis elegans, UniProt G5EF15).
T3 sequence (G5EF15 whole entry): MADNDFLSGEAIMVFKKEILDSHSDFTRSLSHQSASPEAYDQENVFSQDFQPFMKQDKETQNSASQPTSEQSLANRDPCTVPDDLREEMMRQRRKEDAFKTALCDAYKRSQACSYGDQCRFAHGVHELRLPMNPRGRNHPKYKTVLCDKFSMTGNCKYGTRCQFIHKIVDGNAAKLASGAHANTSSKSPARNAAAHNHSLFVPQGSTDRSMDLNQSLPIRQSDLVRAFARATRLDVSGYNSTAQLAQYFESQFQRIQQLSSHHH
Description: inhibitors of POS-1/mex-3 RNA binding, dose response, biochemical, fluorescence polarization (AID 1964).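 Note: purified POS-1 fused to maltose binding protein made in E. coli; potency of compounds blocking POS-1 binding to fluorescent RNA.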 For orientation: Fluorescence polarisation rises when a labelled molecule tumbles more slowly, as on binding a larger partner.

The target in experiment [3] is T4, Zinc finger protein mex-5 (Caenorhabditis elegans, UniProt Q9XUB2).
T4 sequence (Q9XUB2 whole entry): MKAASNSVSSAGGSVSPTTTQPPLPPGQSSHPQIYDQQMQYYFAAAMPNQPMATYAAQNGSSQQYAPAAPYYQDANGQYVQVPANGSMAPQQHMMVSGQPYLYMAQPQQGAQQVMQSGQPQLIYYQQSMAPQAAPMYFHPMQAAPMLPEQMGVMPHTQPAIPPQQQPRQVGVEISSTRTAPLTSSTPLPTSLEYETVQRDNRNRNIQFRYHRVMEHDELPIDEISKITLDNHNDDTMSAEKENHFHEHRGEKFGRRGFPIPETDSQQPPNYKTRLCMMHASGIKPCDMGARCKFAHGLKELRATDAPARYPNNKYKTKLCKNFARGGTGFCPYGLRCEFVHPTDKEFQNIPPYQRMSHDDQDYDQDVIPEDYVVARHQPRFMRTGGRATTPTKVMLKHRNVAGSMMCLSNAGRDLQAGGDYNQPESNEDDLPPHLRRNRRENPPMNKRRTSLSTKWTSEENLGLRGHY
As to the kind of experiment: MEX-5/TCR-2 RNA interaction inhibitors, dose response, biochemical, C. elegans, fluorescence polarization (AID 1960).

A short description of experiment [4]: NIH-3T3 fibroblast cytotoxicity, dose response, cytotoxicity control, cell-based, fluorescence, Alamar Blue, secondary assay (AID 2327).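 Note: NIH-3T3 mouse fibroblasts cultured with fluconazole at 8 µg/mL.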 The class given is functional.
The target of experiment [5] is FAD-linked sulfhydryl oxidase ALR (Homo sapiens, UniProt P55789). As to the kind of experiment: inhibitors of human ALR sulfhydryl oxidase, dose response, biochemical, H2O2 detection, luminescence, cherry-pick (AID 493248).
FAD-linked sulfhydryl oxidase ALR, sequence (P55789 whole entry): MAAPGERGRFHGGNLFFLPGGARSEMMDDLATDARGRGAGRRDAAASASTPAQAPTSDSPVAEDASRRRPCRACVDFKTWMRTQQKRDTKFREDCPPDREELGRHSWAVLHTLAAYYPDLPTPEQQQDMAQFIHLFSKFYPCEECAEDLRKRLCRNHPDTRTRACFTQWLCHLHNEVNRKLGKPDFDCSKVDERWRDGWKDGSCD
In a further experiment the target is Genome polyprotein (dengue virus type 2, UniProt P29990). Description: Dengue-2 NS5 methyltransferase inhibitors, primary screen, biochemical, confirmation dose response (AID 588689). The class given is functional.
Genome polyprotein, sequence (P29990 2492-3391 limits assumed): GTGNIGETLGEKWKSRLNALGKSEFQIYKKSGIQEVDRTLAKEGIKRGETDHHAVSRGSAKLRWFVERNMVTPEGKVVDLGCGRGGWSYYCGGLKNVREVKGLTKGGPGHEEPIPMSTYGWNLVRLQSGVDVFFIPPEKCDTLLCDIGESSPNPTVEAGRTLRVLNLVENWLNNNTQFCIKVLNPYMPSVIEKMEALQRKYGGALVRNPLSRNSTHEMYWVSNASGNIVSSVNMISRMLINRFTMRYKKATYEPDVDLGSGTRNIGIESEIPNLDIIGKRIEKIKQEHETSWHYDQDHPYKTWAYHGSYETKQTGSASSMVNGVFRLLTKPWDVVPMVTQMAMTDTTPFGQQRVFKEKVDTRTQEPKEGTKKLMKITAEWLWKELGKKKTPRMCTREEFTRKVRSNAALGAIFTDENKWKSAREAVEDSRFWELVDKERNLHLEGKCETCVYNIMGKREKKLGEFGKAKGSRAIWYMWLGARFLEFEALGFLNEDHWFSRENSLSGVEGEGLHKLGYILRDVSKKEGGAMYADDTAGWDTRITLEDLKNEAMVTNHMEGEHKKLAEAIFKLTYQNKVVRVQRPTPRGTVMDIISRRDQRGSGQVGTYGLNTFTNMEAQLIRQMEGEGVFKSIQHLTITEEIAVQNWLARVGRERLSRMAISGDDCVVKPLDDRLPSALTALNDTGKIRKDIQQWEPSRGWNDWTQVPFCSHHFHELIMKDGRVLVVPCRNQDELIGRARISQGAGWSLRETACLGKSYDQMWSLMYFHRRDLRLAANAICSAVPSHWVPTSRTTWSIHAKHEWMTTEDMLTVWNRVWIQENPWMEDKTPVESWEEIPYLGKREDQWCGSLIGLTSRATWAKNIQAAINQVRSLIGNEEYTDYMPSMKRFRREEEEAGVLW
Experiment [6] in a line: C. albicans growth with fluconazole, confirmation, fluorescence, retest (AID 2467). The class given is functional, cell-based.
Another experiment concerns the target Cytochrome P450 2C19 (Homo sapiens, UniProt P33261). As to the kind of experiment: Cytochrome panel assay with activity outcomes. Panel member name: p450-cyp2c19 Compounds with AC50 equal or less than 10 uM are considered active. The class given is functional. To be noted: read-out: AC50.
A short description of experiment [7]: HEp-2 cell cytotoxicity, dose response, cytotoxicity control for RSV inhibitor project, HTS (AID 2410). The format is functional. To be noted: human respiratory syncytial virus.
The target of a further experiment is T5, Cytochrome P450 1A2 (Homo sapiens, UniProt P05177).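 Note: PubChem cytochrome P450 panel assay, CYP1A2 panel member.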
T5 sequence (P05177 whole entry): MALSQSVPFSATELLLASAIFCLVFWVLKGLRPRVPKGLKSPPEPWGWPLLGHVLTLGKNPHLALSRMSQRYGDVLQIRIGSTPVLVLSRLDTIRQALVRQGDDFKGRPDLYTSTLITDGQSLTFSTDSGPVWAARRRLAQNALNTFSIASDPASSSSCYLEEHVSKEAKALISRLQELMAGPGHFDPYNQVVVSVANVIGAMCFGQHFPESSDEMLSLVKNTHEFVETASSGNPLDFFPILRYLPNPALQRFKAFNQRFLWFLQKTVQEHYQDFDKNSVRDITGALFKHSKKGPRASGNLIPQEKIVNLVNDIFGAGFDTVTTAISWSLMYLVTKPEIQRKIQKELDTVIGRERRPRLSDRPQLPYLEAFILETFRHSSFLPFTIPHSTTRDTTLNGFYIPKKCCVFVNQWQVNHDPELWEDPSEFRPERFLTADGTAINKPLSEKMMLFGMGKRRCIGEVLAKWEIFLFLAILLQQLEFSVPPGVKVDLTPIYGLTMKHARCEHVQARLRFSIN

The source made the active and inactive calls. A value given as a limit tells only on which side of the number the result lay.

Cytochrome P450 3A4, sequence (P08684 whole entry): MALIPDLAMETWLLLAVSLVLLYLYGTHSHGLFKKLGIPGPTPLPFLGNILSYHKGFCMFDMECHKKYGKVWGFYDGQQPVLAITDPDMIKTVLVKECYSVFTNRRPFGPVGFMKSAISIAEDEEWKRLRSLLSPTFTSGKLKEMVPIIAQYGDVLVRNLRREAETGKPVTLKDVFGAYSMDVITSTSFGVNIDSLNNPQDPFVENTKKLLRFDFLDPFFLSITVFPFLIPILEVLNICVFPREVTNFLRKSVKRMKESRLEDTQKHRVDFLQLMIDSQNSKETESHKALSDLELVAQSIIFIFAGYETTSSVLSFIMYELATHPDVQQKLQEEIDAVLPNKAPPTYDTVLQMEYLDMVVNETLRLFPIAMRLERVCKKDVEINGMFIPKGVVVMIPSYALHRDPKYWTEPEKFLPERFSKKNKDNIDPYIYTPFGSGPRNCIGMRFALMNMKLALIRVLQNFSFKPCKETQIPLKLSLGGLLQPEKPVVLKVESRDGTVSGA
Cytochrome P450 2D6, sequence (P10635 whole entry): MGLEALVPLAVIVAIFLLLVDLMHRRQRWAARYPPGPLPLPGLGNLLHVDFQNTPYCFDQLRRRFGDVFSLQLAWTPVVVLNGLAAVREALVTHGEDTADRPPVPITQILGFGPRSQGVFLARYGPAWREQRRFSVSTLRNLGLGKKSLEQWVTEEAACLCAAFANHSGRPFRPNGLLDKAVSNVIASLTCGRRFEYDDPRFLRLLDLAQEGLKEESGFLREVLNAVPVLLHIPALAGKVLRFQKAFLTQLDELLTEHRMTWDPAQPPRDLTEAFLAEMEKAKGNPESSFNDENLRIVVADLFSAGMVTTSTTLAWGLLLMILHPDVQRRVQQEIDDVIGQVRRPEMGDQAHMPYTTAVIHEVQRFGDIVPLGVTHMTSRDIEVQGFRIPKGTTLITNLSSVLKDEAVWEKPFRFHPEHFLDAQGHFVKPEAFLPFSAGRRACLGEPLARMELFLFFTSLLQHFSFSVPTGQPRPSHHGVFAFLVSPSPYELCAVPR
Cytochrome P450 2C19, sequence (P33261 whole entry): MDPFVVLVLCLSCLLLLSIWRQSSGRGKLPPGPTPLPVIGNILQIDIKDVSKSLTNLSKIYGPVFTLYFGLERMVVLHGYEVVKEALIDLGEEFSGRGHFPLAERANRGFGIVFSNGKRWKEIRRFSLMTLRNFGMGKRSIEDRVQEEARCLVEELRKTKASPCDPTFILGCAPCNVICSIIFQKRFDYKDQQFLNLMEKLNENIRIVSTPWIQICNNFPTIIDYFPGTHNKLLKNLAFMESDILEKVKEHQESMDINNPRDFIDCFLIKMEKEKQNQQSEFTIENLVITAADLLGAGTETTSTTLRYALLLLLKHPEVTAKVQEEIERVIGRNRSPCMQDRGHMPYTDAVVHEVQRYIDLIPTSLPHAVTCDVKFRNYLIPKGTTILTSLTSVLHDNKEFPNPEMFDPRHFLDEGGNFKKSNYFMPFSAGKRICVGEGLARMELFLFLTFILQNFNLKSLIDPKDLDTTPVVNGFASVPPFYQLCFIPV
Cytochrome P450 2C9, sequence (P11712 whole entry): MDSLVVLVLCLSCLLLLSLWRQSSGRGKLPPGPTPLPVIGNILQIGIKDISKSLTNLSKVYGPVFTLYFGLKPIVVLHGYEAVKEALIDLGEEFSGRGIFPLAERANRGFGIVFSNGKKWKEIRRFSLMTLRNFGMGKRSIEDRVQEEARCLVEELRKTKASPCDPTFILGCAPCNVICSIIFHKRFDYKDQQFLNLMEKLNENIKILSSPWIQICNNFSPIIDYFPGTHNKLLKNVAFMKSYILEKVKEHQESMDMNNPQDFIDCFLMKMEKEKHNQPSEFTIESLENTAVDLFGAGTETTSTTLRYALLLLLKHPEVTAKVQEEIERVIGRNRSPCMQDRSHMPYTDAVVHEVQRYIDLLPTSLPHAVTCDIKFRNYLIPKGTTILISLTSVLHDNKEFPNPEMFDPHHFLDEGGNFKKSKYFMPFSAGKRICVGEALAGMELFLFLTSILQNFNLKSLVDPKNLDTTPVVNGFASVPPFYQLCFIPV

`COc1ccc(N2C(=O)CC(N(CCc3ccccc3)C(=O)/C=C/C(=O)O)C2=O)cc1` (centres undefined): the AC50 in experiment [1] was > 380 µM (inactive). Moreover, the EC50 on Protein RecA is > 380 µM (inactive). As to `O=C(NCc1ccccc1Cl)c1ccc2c(=O)n(CCCN3CCCC3=O)c(=S)[nH]c2c1`, the AC50 on Cytochrome P450 2D6 is 22.4 µM (inconclusive); at Cytochrome P450 3A4, 15.8 µM (inconclusive). Turning to `CCOC(=O)c1ccc(NC(=O)NCc2cccnc2)cc1`, the AC50 with INS1 is 2.09 µM (active). Regarding `COc1cc(C(c2c(C)[nH][nH]c2=O)c2c(C)[nH][nH]c2=O)cc([N+](=O)[O-])c1O`, the EC50 was 7.63 µM (active) in experiment [2], 4.74 µM (active) in experiment [3] and 0.248 µM (active) on Protein RecA. For the same compound, the AC50 in experiment [1] is 0.42 µM (active).

`CCc1ccc(N(C(=O)c2ccoc2C)C(C(=O)NC2CCCC2)c2ccc(OC)cc2)cc1` (centres undefined): the results for the AC50 at Cytochrome P450 2D6 and at Cytochrome P450 3A4 were 15.8 µM (inconclusive) and 1.26 µM (inconclusive), respectively. As to `O=C(c1ccco1)N1CCC[C@@]2(CCN(c3ccccc3)C2)C1`, the AC50 on Cytochrome P450 2D6 is 20 µM (inconclusive). In the case of `O=C1NN(c2ccc(Cl)c(Cl)c2)C(=O)/C1=C/c1ccc(-c2ccccc2C(=O)O)o1`, the EC50 in experiment [4] was > 160 µM (inactive). In addition, in experiment [5], the AC50 was 0.26 µM (active). At Genome polyprotein, the IC50 is 7.41 µM (active). In the case of `CN1CCN(c2nc(-c3ccccc3C(F)(F)F)nc3ccccc23)CC1`, the AC50 on Cytochrome P450 2D6 was 39.8 µM (inconclusive); on Cytochrome P450 3A4 it was 20 µM (inconclusive).

In the case of `CN(Cc1ccccc1)C(=O)c1nc2ccccn2c1CN1CCCC1c1nccs1` (centres undefined), in the experiment on INS1, the AC50 is > 260 µM (inactive). In the case of `Cc1cc(C2C(C#N)=C(N)Oc3[nH]nc(C)c32)c(C)s1` (centres undefined), the AC50 in experiment [1] is 10.9 µM (active); on Cytochrome P450 3A4, 7.08 µM (inconclusive); at Cytochrome P450 2C9, 10 µM (inconclusive). Besides, the EC50 at Protein RecA was 3.32 µM (active).

Turning to `O=C(c1ccco1)N1CCN(c2ncnc3c(-c4ccccc4)nsc23)CC1`, the EC50 in experiment [4] is 108 µM (active); in [6] it was 9.83 µM (active).

Turning to `O=C(CN1C(=O)/C(=C/c2ccccc2)SC1=S)NNC(=O)c1ccccc1O`, the EC50 is > 160 µM (inconclusive) in [4] and > 38 µM (not active) in experiment [6]. On to `O=C1/C(=C/c2cccc(F)c2)SC(=S)N1NS(=O)(=O)c1ccccc1`, for which the IC50 at Genome polyprotein was 30.6 µM (active). `O=C(NNc1ccc(Cl)cc1)C1CCC1`: the EC50 in [4] was 48.3 µM (active); in [6], > 38 µM (not active). Consider `CCn1c(SCC(=O)N2CCN(S(=O)(=O)c3ccccc3)CC2)nnc1-c1cccs1`, for which the AC50 is 22.4 µM (inconclusive) on Cytochrome P450 2C19 and 17.8 µM (inconclusive) at Cytochrome P450 2D6.

As to `Cc1noc(C)c1C(=O)OCC(=O)NC(c1ccccc1)c1ccccc1`, the AC50 on Cytochrome P450 2D6 was 3.16 µM (inconclusive). For the compound `O[C@@H](C1=C/C(=C\c2ccncc2)c2ccccc21)c1ccncc1`, the AC50 on Cytochrome P450 2D6 is 1.58 µM (inconclusive).

For `Cc1cccc(N2CC(C(=O)OCC(=O)c3ccc(OC(=O)c4cccs4)cc3)CC2=O)c1C` (centres undefined), the AC50 in [1] was 97.7 µM (active). On Protein RecA, the EC50 is 25 µM (active). For `CCOC(=O)c1nc(C)n(-c2ccc(Cl)cc2)n1`, in that order: > 380 µM (inactive) and > 380 µM (inactive).

In the case of `COc1ccccc1CN1CCCC2(CCN(C(=O)c3c(C)noc3C)CC2)C1`, the AC50 is 12.6 µM (inconclusive) on Cytochrome P450 2D6 and 10 µM (inconclusive) on Cytochrome P450 3A4. With `CCc1ccc(C2C(C#N)=C(N)Oc3[nH]nc(CC(=O)OC)c32)cc1` (centres undefined), in experiment [1], the AC50 is 13.8 µM (active). Moreover, the EC50 on Protein RecA is 8.36 µM (active). `O=S(=O)(O)c1cccc2cccc(Nc3ccccc3)c12`: the IC50 at Genome polyprotein is > 100 µM (active). On to `COC(=O)N/N=C/c1ccc(-c2cc(Cl)cc(Cl)c2)o1`, for which the EC50 in experiment [4] is > 150 µM (inactive); in experiment [6], 5.04 µM (active). Also, the CC50 in [7] is > 50 µM (active). On to `CCn1c2ccccc2c2cc(/N=C3/SC(CC(=O)Nc4ccccc4)C(=O)N3C)ccc21` (centres undefined), for which the AC50 on Cytochrome P450 2D6 was 7.08 µM (inconclusive); on Cytochrome P450 1A2 it was 3.16 µM (inconclusive). With `CC1=NN(c2ccc(Cl)cc2)C(=O)C1`, in experiment [1], the AC50 is 2.74 µM (active). On Protein RecA, the EC50 was 2.67 µM (active).

By AC50 is commonly meant the concentration at which the activity in the assay is half-maximal. As a reminder, the EC50 is the concentration that produces a half-maximal response. Usually IC50 stands for the midpoint of a concentration-inhibition curve. As usually defined, the CC50 is the concentration that lowers cell viability or growth by half.
